Data published in patent publication US20110070575A1, “Immunomodulatory Compositions, Combinations and Methods” (Coley Pharmaceutical Group, Inc., priority 2004, published 2011).
“Also recorded” adds a separate entry of the source. Oligonucleotides are written 5' to 3', each unit as a sugar letter and its base; * is a phosphorothioate linkage, no mark a phosphodiester; rarer units and linkages stand in square brackets, end groups in braces. Plain capitals give the bases only. d = 2'-deoxy (DNA)

Target: T1, Human TLR7 (Homo sapiens, UniProt Q9NYK1)
T1 construct: expressed in transfected cells; host or cells: HEK293 (ATCC No. CRL-1573)
T1 sequence (Q9NYK1 27-1049): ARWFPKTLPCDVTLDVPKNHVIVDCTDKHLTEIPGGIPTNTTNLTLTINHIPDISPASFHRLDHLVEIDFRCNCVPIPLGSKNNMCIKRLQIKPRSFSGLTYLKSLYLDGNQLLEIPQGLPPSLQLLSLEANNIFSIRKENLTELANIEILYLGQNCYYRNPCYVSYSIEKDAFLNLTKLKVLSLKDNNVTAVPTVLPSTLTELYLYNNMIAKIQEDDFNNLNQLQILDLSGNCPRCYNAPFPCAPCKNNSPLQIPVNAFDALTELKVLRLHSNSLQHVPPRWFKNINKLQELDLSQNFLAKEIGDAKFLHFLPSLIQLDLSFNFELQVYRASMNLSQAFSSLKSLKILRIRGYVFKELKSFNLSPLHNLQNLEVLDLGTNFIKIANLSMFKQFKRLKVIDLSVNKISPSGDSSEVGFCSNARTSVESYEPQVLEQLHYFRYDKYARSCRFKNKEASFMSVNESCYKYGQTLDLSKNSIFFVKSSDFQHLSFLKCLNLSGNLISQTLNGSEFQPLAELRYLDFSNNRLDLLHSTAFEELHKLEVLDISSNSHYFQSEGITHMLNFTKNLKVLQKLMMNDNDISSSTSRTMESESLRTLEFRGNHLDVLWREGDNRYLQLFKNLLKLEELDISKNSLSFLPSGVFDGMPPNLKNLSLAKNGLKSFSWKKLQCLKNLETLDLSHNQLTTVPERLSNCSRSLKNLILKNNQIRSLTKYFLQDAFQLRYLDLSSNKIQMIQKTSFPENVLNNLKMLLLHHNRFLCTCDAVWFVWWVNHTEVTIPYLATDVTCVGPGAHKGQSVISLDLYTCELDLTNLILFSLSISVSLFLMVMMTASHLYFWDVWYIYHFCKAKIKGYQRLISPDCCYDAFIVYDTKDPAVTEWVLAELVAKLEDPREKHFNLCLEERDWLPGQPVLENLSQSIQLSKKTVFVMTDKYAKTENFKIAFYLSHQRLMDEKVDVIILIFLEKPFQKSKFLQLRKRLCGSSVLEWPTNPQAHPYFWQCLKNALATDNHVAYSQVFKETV
Experiment: NFκB luciferase induction in HEK293 cells transfected with human TLR7
Type: cell-based
Details: transfected HEK293 cell line; poly(T), poly(A) or poly(C) oligonucleotide with 3 μM IRM1; overnight
Procedure: Human TLR7 and NFκβ were transfected into human epithelial kidney 293 (HEK293, American Type Culture Collection, Manassas, Va., ATCC No. CRL-1573) cells as described in U.S. Patent Publication Nos. U82004/0014779 and US2004/0171086. The selected transfected cells were counted and resuspended to a concentration of 5×10^5 cell per mL in culture media.
Cultured media was prepared from complete DMEM media (Biosource International Inc., Camarillo, Calif.), without phenol red. Fetal bovine serum (Biosource International Inc.) was added to a final concentration of 10% (vol/vol.), sodium pyruvate (Biosource International Inc.) was added to 1 mM; L-glutamine (Biosource International Inc.) was added to 2 mM; penicillin (Biosource International Inc.) was added to 100 U/mL; streptomycin (Biosource International Inc.) was added to 100 μg/mL.
100 μL aliquots of cells were placed in the wells of a white-walled, white-bottomed 96-well plate (Corning, Inc. Corning, N.Y.). […] As a negative control, some cell aliquots were incubated without a stimulus (media control). In all cases, the cells were incubated overnight at 37° C. with 5% CO2 and 98% humidity.
After the cells incubated overnight, 100 μL volume of reconstituted LucLight Plus (Packard Instruments, Meriden, Conn.) was added to each aliquot of cells. Each well of the plate was read on a L-max luminometer (Molecular Devices, Sunnyvale, Calif.). The data is expressed as fold increase of luciferase induction in cell aliquots incubated with the indicated stimulant compared to the negative control.
HEK293 cells expressing human TLR7 were prepared as described in Example 1. […] As a negative control, some cell aliquots were incubated without a stimulus (media control).
After the cells incubated overnight, the cells were analyzed as described in Example 1. The data is expressed as fold increase of luciferase induction in cell aliquots incubated with the indicated stimulant compared to the negative control.

| Substance | inhibition of smIRM-induced TLR7-mediated biological activity (fold increase of luciferase induction) |
| --- | --- |
| poly(A): 18-mer poly(A) oligonucleotide, 5′-AAAAAAAAAAAAAAAAAA-3′ (dA*dA*dA*dA*dA*dA*dA*dA*dA*dA*dA*dA*dA*dA*dA*dA*dA*dA) | inhibition; also recorded: capable of limiting TLR7-mediated biological activity |
| poly(T): 18-mer poly(T) oligonucleotide, 5′-TTTTTTTTTTTTTTTTTT-3′ | inhibition; also recorded: capable of limiting TLR7-mediated biological activity |
